Test results published in publication PMC12006171, “Marsupial cathelicidins: characterization, antimicrobial activity and evolution in this unique mammalian lineage” (Frontiers in Immunology, 2025).
Converted amounts (≈) assume the structure as drawn. Like-named read-outs stand apart in the source and are kept apart here. Where a SMILES comes first, the peptide text is derived from it. Where no end group is shown, it is not given here.

Assays:
Assay in all cases: microbe, parasite or virus in culture
Format in all cases: cell-based
[1] = tested on: Escherichia coli ATCC 25922; details: ATCC 25922
Outline: (§1)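 CLSI broth microdilution, MHB ± cations ± 10% lysed horse blood; peptide 64-0.125μg/mL final, duplicates; 5 x 10^5 CFU/mL; 35°C, 20–24 h; MIC = no visible growth.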

[2] = tested on: Escherichia coli clinical isolate - animal; details: clinical isolate - animal
Outline: as §1

[3] = tested on: Pseudomonas aeruginosa ATCC 27853; details: ATCC 27853; read-out: MIC P. aeruginosa ATCC
Outline: as §1

[4] = tested on: Pseudomonas aeruginosa clinical isolate - animal; details: clinical isolate - animal; read-out: MIC P. aeruginosa
Outline: as §1

[5] = tested on: Staphylococcus aureus ATCC 29213; details: ATCC 29213; read-out: MIC S. aureus ATCC
Outline: as §1

[6] = tested on: Staphylococcus aureus clinical isolate - animal; details: clinical isolate - animal; read-out: MIC S. aureus
Outline: as §1

[7] = tested on: Streptococcus agalactiae ATCC 12386; details: ATCC 12386; read-out: MIC S. agalactiae ATCC
Protocol: (§2) Antimicrobial testing of 78 cathelicidin MPs was performed in two phases as outlined in Figure 1 . In phase I, 40 peptides (27 extant and 13 ancestral) were selected for testing based on rank (outlined above) and similarity to published marsupial cathelicidins with known antimicrobial activity ([33], [41]–[43]). These peptides were tested against nine bacteria (Staphylococcus aureus ATCC 29213 and clinical isolate, Escherichia coli ATCC 25922 and clinical isolate, Pseudomonas aeruginosa ATCC 27853 and clinical isolate, Streptococcus agalactiae ATCC 12386 and clinical isolate, Streptococcus pneumoniae ATCC 49619) and three fungi (Candida krusei ATCC 6258, Candida parapsilosis ATCC 22019, and Candida albicans clinical isolate). Details regarding these strains are available in Supplementary Table 4 . The antimicrobial activity of cathelicidins was determined as the minimum inhibitory concentration (MIC), which was the lowest concentration of cathelicidin that prevented visible bacterial or fungal growth, relative to the negative control. […] Minimum bactericidal concentration (MBC) and/or minimum fungicidal concentration (MFC) was conducted to determine microbicidal versus static action. Activity against S. aureus ATCC, E. coli ATCC, and Pseudomonas aeruginosa ATCC 27853 was examined in the presence of divalent cations to determine the impact of inhibitors.
(§3) Antimicrobial activity was determined using a broth microdilution susceptibility assay in 96 well polypropylene plates according to Clinical Laboratory Standards Institute guidelines M07-A and M26A as described previously ([33], [42], [43]). The bacterial and fungal isolates from humans and animals used in this study are outlined in Supplementary Table 4 . Only yeasts were included in the panel of fungi as they have been used in the susceptibility testing of eutherian ([3], [81]–[83]) and other marsupial cathelicidins previously ([33], [42], [43]). Cathelicidin mature peptides were solubilized in DMSO and serially diluted in duplicate from 128-0.25μg/mL in a final volume of 100µL. For bacteria, cathelicidins were diluted in Mueller Hinton Broth (MHB) with or without 10% lysed horse blood, and with (MH II B) or without (MHB) calcium and magnesium cations. For fungi, cathelicidins were diluted in Roswell Park Memorial Institute medium (RPMI)-1640 MOPS. Ampicillin or tetracycline were included as a positive control for Gram-positive and -negative bacteria respectively, while amphotericin B was used for fungi. A media-only negative control and growth control (no cathelicidin) were also included on each plate. Bacteria were sub-cultured on Muller Hinton agar (MHA) or sheep blood agar (BA), and fungi on Sabouraud dextrose agar (SAB), 20–24 hours prior to the test. Colonies were suspended in saline, the concentration adjusted to a 0.5 McFarland standard, and then diluted in media to a concentration of 1.0 x 10^6 cells/mL. Then, 100μL was added to each well of the cathelicidin dilution plate, giving a final inoculum density of 5 x 10^5 CFU/mL and cathelicidin concentration of 64-0.125μg/mL. Colony counts were performed on MHA/BA/SAB to confirm inoculum density. All plates were incubated at 35°C for 20–24 hours, depending on the strain.
(§4) Colonies were counted and compared to the colony count of the starting inoculum.

[8] = tested on: Streptococcus agalactiae Clinical isolate - animal; details: clinical isolate - animal; read-out: MIC S. agalactiae
Protocol: as §2, §3, §4

[9] = tested on: Streptococcus pneumoniae ATCC 49619; details: ATCC 49619; read-out: MIC S. pneumoniae ATCC
Protocol: as §2, §3, §4

[10] = read-out: MIC in the presence of cations E. coli ATCC

| Compound | MBC E. coli ATCC [1] | MIC ([1]; read-out: MIC E. coli ATCC) | MIC [1, 10] | MBC E. coli [2] | MIC [2] | MIC in the presence of cations E. coli [2] | MIC [3] | MIC [4] | MIC [5] | MIC [6] | MIC [7] | MIC [8] | MIC [9] | MIC E. coli [2] |
| --- | --- | --- | --- | --- | --- | --- | --- | --- | --- | --- | --- | --- | --- | --- |
| KVKRGLWDSVKKKVSKFRNSIRRRVTSFKIGAADIRKGYSVA [BepeCath7] | 13.2 µM | 6.6 µM | 6.6 µM | 13.2 µM | 6.6 µM | 6.6 µM | >13.2 µM | >13.2 µM | >13.2 µM | >13.2 µM | >13.2 µM | >13.2 µM | >13.2 µM |  |
| CC[C@H](C)[C@H](NC(=O)[C@H](CC(C)C)NC(=O)[C@H](CCCCN)NC(=O)[C@H](C)NC(=O)[C@H](CC(C)C)NC(=O)[C@H](CO)NC(=O)[C@H](CCCNC(=N)N)NC(=O)[C@@H](N)C(C)C)C(=O)N[C@@H](Cc1ccc(O)cc1)C(=O)N[C@@H](CCC(N)=O)C(=O)N[C@@H](CCCCN)C(=O)N[C@@H](Cc1ccc(O)cc1)C(=O)N[C@@H](CCCNC(=N)N)C(=O)N[C@@H](CCC(N)=O)C(=O)N[C@@H](CC(C)C)C(=O)N[C@@H](CC(C)C)C(=O)N[C@@H](CC(=O)O)C(=O)N[C@@H](CCCCN)C(=O)N[C@@H](Cc1ccc(O)cc1)C(=O)N[C@H](C(=O)N[C@H](C(=O)N[C@@H](CC(C)C)C(=O)N[C@@H](CCCNC(=N)N)C(=O)N[C@@H](CC(N)=O)C(=O)NCC(=O)N[C@@H](Cc1ccc(O)cc1)C(=O)N[C@@H](CCCCN)C(=O)N[C@@H](CCCCN)C(=O)N[C@@H](CC(C)C)C(=O)N[C@@H](CCC(N)=O)C(=O)N[C@@H](CC(=O)O)C(=O)N[C@H](C(=O)N[C@@H](Cc1ccccc1)C(=O)N[C@@H](CO)C(=O)N[C@@H](CCCCN)C(=O)N[C@@H](CCC(N)=O)C(=O)N[C@H](C(=O)NCC(=O)N[C@@H](CO)C(=O)O)C(C)C)[C@@H](C)CC)[C@@H](C)CC)[C@@H](C)O [MacroCath8] (H-VRSLAKLIYQKYRQLLDKYTILRNGYKKLQDIFSKQVGS-OH) |  | >13.6 µM |  |  |  | 13.6 (>13.6)^13.6 µM | >13.6 µM | >13.6 µM | >13.6 µM | >13.6 µM | >13.6 µM | >13.6 µM | >13.6 µM | 13.6 (>13.6)^13.6 µM |
| CC[C@H](C)[C@H](NC(=O)[C@H](C)NC(=O)[C@H](CC(N)=O)NC(=O)[C@H](CCCCN)NC(=O)[C@H](Cc1ccccc1)NC(=O)[C@@H](NC(=O)[C@H](CC(=O)O)NC(=O)[C@H](CCCCN)NC(=O)[C@@H](NC(=O)[C@H](CCCCN)NC(=O)[C@H](CC(=O)O)NC(=O)[C@H](CO)NC(=O)[C@H](C)NC(=O)[C@H](CCCCN)NC(=O)[C@H](CCCCN)NC(=O)[C@H](CC(C)C)NC(=O)[C@H](CC(C)C)NC(=O)[C@H](CC(N)=O)NC(=O)[C@H](CCCCN)NC(=O)[C@@H](NC(=O)[C@H](CCCCN)NC(=O)[C@H](CCC(=O)O)NC(=O)[C@@H](NC(=O)[C@@H](NC(=O)[C@H](CCCNC(=N)N)NC(=O)[C@H](CC(C)C)NC(=O)[C@H](CCCNC(=N)N)NC(=O)[C@H](CCCCN)NC(=O)[C@@H](N)C(C)C)[C@@H](C)CC)C(C)C)[C@@H](C)CC)[C@@H](C)CC)[C@@H](C)O)C(=O)N[C@@H](CC(N)=O)C(=O)N[C@@H](CO)C(=O)N[C@@H](CC(C)C)C(=O)N[C@@H](CC(C)C)C(=O)N[C@@H](CO)C(=O)O [MacroCath7] (H-VKRLRIVEKIKNLLKKASDKIKDTFKNAINSLLS-OH) | 16.3 µM (≈ 64 µg/mL) | 8.1 µM (≈ 31.8 µg/mL) | 8.1 µM | 16.3 (16.3)^16.3 µM |  | 16.3 (16.3)^16.3 µM | >16.3 µM | >16.3 µM | >16.3 µM | >16.3 µM | >16.3 µM | >16.3 µM | >16.3 µM | 16.3 (16.3)^16.3 µM |
| CC[C@H](C)[C@H](NC(=O)[C@H](CCCCN)NC(=O)[C@H](CC(C)C)NC(=O)CNC(=O)[C@H](CC(N)=O)NC(=O)[C@@H](NC(=O)[C@H](CCCNC(=N)N)NC(=O)[C@H](CCCNC(=N)N)NC(=O)[C@H](CCCNC(=N)N)NC(=O)[C@@H](NC(=O)[C@H](CO)NC(=O)[C@H](CC(N)=O)NC(=O)[C@H](CCCNC(=N)N)NC(=O)[C@H](CC(C)C)NC(=O)[C@H](CCCCN)NC(=O)[C@H](CCCCN)NC(=O)[C@H](C)NC(=O)[C@H](CCCCN)NC(=O)[C@H](CCC(=O)O)NC(=O)[C@H](CCCCN)NC(=O)[C@@H](NC(=O)[C@@H](NC(=O)[C@H](CC(=O)O)NC(=O)[C@H](Cc1c[nH]c2ccccc12)NC(=O)[C@H](CC(C)C)NC(=O)CNC(=O)[C@H](CCCNC(=N)N)NC(=O)[C@@H](N)CCCCN)[C@@H](C)O)C(C)C)[C@@H](C)CC)C(C)C)C(=O)NCC(=O)N[C@@H](C)C(=O)N[C@@H](C)C(=O)N[C@@H](CC(=O)O)C(=O)N[C@@H](CCC(N)=O)C(=O)N[C@H](C(=O)N1CCC[C@H]1C(=O)NCC(=O)N[C@@H](Cc1c[nH]cn1)C(=O)N[C@@H](CO)C(=O)N[C@@H](CC(C)C)C(=O)O)C(C)C [LahiCath4] (H-KRGLWDTVKEKAKKLRNSIRRRVNGLKIGAADQVPGHSL-OH) | 14.5 µM (≈ 63.8 µg/mL) | 7.2 µM (≈ 31.7 µg/mL) | 14.5 µM | 14.5 µM (≈ 63.8 µg/mL) | 3.6 µM (≈ 15.8 µg/mL) | 14.5 µM | >14.5 µM | >14.5 µM | >14.5 µM | >14.5 µM | >14.5 µM | >14.5 µM | >14.5 µM |  |
